From PMC10344656, “Plasma pharmacokinetics of tigolaner, emodepside, and praziquantel following topical administration of a combination product (Felpreva®) and of intravenous administration of the individual active ingredients in cats” (Current Research in Parasitology & Vector-borne Diseases, 2023)
Where two headings read alike, the source gives them in different places.

How the values were obtained:
fleas = details: cats, topical, ref EMA, 2022; Mencke et al., 2023; cited from earlier work
Source text: (§1) Tigolaner, from the bis-pyrazole class of compounds has potent antiparasitic properties acting against γ-aminobutyric acid- (GABA-) and glutamate-gated chloride channels with significant selectivity for insect neurons over mammalian neurons ([EMA, 2022]). Tigolaner has a high potency against insects and acarids by exposure via their feeding, i.e. fleas and ticks that initiate feeding will be exposed to the AI ([Cvejić et al., 2022a], [b]; [Mencke et al., 2023]). A single tigolaner dose administered topically at the minimum recommended dose of 14.5 mg/kg body weight (BW) on cats provides 13 we ...

fleas and ticks = details: cats, single topical dose, minimum recommended dose 14.5 mg/kg body weight, ref Cvejić et al., 2022a, b; Mencke et al., 2023; cited from earlier work
Source text: as §1

[1] = Plasma pharmacokinetics after single topical Felpreva at 2.5x and 5x dose multiples (Study 2); details: for Cmax: n = 8, plasma, geometric mean; for AUCinf / T1/2 / Tmax / AUC(0-inf) / half-life: n = 8, geometric mean; for AUClast/D (Geo CV%) / Cmax/D (Geo CV%): dose-normalised, geometric mean (geometric CV%); for AUC(0-inf): AUCinf; for half-life: T1/2, cats
Procedure: (§2) Altogether three studies were conducted.
(§3) Each AI and treatment were evaluated separately.
(§4) All parameters were derived from individual animal data sets.
(§5) Relative data set weight was always set to 1.

[2] = Plasma pharmacokinetics after intravenous administration of the single active ingredients (Study 1); details: for T1/2 (plasma half-life): Study 1, single i.v. bolus in tetraglycol, 0.2 mg/kg praziquantel (actual 1.62, 0.21, 0.21 mg/kg), n = 6 per group, HPLC-MS/MS, geometric mean (geometric CV%)
Procedure: as §2, §3, §4, §5
The basic plasma PK characteristics of the active AIs tigolaner, emodepside and praziquantel were profiled after i.v. dosing based on at least the following parameters: Clearance (Cl), V, extrapolated concentration at time of dosing (C0), area under the curve until the last concentration above LoQ (AUClast), AUCinf, dose normalized AUClast and AUCinf (AUClast/D, AUCinf/D), mean residence time (MRT), and half-life. The statistical group mean estimates and suitable statistical parameters describing the distribution (scattering) were provided.

[3] = for AUClast/D (Geo CV%) / Cmax/D (Geo CV%): single topical Felpreva 1x, dose-normalised, geometric mean (geometric CV%)
Procedure: (§7) Altogether three studies were conducted. Cats were treated with Felpreva® (containing emodepside praziquantel and tigolaner) at the recommended dose (14.5 ​mg/kg tigolaner, 3 ​mg/kg emodepside and 12 ​mg/kg praziquantel) or at 2.5× and 5× the recommended dose. For intravenous (i.v.) injection (Study 1) tigolaner, emodepside and praziquantel were formulated in tetraglycol as 8.9%, 1.85% and 7.4% solutions, respectively.
(§8) All cats were healthy and acclimatized for a minimum of 7 days. In studies 1 and 2, cats were individually housed for 8 ​h or 10–12 days following i.v. or topical administration, respectively, to avoid potential cross-contamination between animals. After this period, cats were group-housed by treatment group and sex. In Study 3, cats were socially housed in groups of 3 (same sex/same dose group) in one or more connected similar cages. The exception was when cats were separated for designated study procedures/activities associated with dosing or urine and faeces collection.
(§9) In Study 1 where i.v. administration was performed, 6 animals per treatment group were treated with a slow manual i.v. bolus using a catheter placed in the Vv. saphena medialis or Vv. saphena lateralis, and suitable 1-ml single-use syringes. Catheters were placed immediately prior to administration and removed immediately afterwards. Tigolaner (in tetraglycol, C5H9O(OC2H4)nOH, CAS no. 31692-85-0) was administered at 1.5 ​mg/kg (volume: 70–80 ​μl), emodepside (in tetraglycol) was administered at 0.3 ​mg/kg (volume 40–70 ​μl) and praziquantel (in tetraglycol) was administered at 0.2 ​mg/kg (volume: 40–60 ​μl). Low dose rates were administered intravenously to ensure tolerance of an i.v. bolus. Where treatment was administered topically, a spot-on application was manually applied at the base of the head while the hair was divided with 2 fingers. In all studies, topical doses were calculated using individual BWs and the nominal content of the three AIs. The AIs were administered based on the licensed therapeutic dose of 14.5, 3 and 12 ​mg/kg BW for tigolaner, emodepside and praziquantel, respectively. Cats were restrained for approximately a minute following administration to aid spread of the applied formulation and to prevent any possible run-off. […] Cats were closely observed for 1 ​h after dosing and at least once daily thereafter.
(§10) Blood samples of ∼0.5 ​ml (Studies 1 and 2) and 1.0 ​ml (Study 3) were collected into EDTA K2E tubes from the Vv. cephalica antebrachii or another suitable vein. Plasma was harvested following centrifugation (10 ​°C, 3220× g for 10 ​min) and subsequently stored frozen at −18 ​°C.
(§11) Analysis of all samples was performed after finalisation of the biological part of the study. The plasma samples were deproteinised by mixing 100 ​μl of plasma with 900 ​μl of a precipitation mixture of 0.040 ​g ammonium acetate in 100 ​ml water plus 0.1 ​ml formic acid and 600 ​ml acetonitrile containing the internal standards praziquantel-cyclohexyl-d11and [^13C2H6] tigolaner and subsequent centrifugation. Analysis of the AIs tigolaner, emodepside, and praziquantel was conducted by using High Performance Liquid Chromatography with an Agilent Zorbax Eclipse Plus C18 Rapid Resolution, 2.1 ​× ​50 ​mm, 1.8 ​μm column, water/formic acid (1000/0.120, v/v) ​+ ​10 ​mMol/l ammonium formate and methanol/formic acid (1000/0.120, v/v) ​+ ​10 ​mMol/l ammonium formate as mobile phase (0–0.5 ​min at 90/10 v/v, gradient to 0/100 v/v at 3–3.5 ​min and gradient to 90/10 v/v at 4–5 ​min) at 60 ​°C with a flow of 0.6 ​ml/min. Detection was performed by Tandem Mass Spectrometry (HPLC-MS/MS) using a Sciex API 5500 mass spectrometer in the positive ionisation mode.

[4] = Excretion in urine and faeces after topical Felpreva (Study 3); details: for route of clearance: in vivo
Procedure: Urine and faeces were collected from cats in Study 3 for analysis of excretion of the AIs. Sampling days per cat were study days 1, 2, 7, 14, 21 and 28. Cats were kept in stainless steel cages with a litter box for the collection of total urine and faeces. The total volume of urine was determined, thereafter 2 aliquots (A + B) of ∼5 ml urine were taken, collected in clear tubes and stored in a freezer set to maintain −18 °C. Faecal samples were weighed and stored in a freezer set to maintain −18 °C.
Urine samples were prepared for analysis by mixing 100 μl urine with 900 μl solvent mixture (as described above), containing labelled tigolaner and praziquantel as internal standards, and then centrifuged. […] The lower limit of quantitation was 1 μg/l.
Faecal samples were extracted by mixing 1 or 5 g faeces with 15 or 40 ml acetonitrile containing the internal standards. The mixture was ultrasonicated and shaken by means of an overhead shaker and then centrifuged. The supernatant was transferred into a flask and the residue extracted again with 5 or 30 ml extraction solvent, shaken, and centrifuged. The extracts were combined and filled up to 20 or 100 ml with extraction solvent containing the internal standards, then filtered. […] The limit of quantitation was 10 μg/kg for each analyte.

in vivo = details: topical or ocular
Procedure: as §7, §8, §9, §10, §11

[5] = set-up: method as in Jacquot et al., 2021; details: cats, Nexgard Combo spot-on, ref Jacquot et al., 2021; cited from earlier work
Source text: (§6) Felpreva® combines the established Profender® AIs, emodepside and praziquantel with tigolaner.

[6] = in vivo; cited from earlier work
Source text: as §6

[7] = 2.5x dose relative to 1x dose, topical Felpreva, cats
[8] = 5x dose relative to 1x dose, topical Felpreva, cats
[9] = cats, Study 2, single topical Felpreva 2.5x, 0.37 ml/kg
[10] = cats, Study 2, single topical Felpreva 5x, 0.74 ml/kg
[11] = cats, single topical Felpreva 2.5x
[12] = cats, single topical Felpreva 5x
[13] = topical Felpreva, dose rates from 1x to 2.5x and 5x, cats, Cmax/D and AUClast/D
[14] = cats, 1.5 mg/kg tigolaner, 0.2 mg/kg emodepside
[15] = cats, single i.v. bolus, 1.5 mg/kg tigolaner, 0.2 mg/kg emodepside, 0.2 mg/kg praziquantel, n = 6, geometric mean (geometric CV%)
[16] = Domestic Shorthair, in vivo, iv, 0.2 mg/kg

SMILES: Cn1nc(C(F)(F)C(F)(F)F)c(C(F)(F)F)c1-n1cc(-c2ccc(Cl)c(C(=O)NC3(C#N)CC3)c2)cn1 [Tigolaner, tigolaner]
- onset of efficacy, fleas already on the cat prior to treatment (fleas): ≤ 12 h
- onset of efficacy, new flea infestation, after two months (fleas): ≤ 24 h
- onset of efficacy, new flea infestation, for two months (fleas): ≤ 8 h
- duration of flea and tick control (fleas and ticks): 13 weeks
- Ratio AUClast/D [1, 7]: 1.05
- Ratio Cmax/D [1, 7]: 0.91
- Ratio AUClast/D [1, 8]: 0.76
- Ratio Cmax/D [1, 8]: 0.58
- Cmax ([1]; cats, Study 2, single topical Felpreva 2.5x, 0.37 ml/kg (36.25 mg/kg tigolaner, 7.5 mg/kg emodepside, 30 mg/kg praziquantel)): 2496.9 ng/mL
- AUCinf [1, 9]: 3308 mg∗h/l
- T1/2 [1, 9]: 569.9 h
- Tmax [1, 9]: 440.4 h
- Cmax ([1]; cats, Study 2, single topical Felpreva 5x, 0.74 ml/kg (72.5 mg/kg tigolaner, 15 mg/kg emodepside, 60 mg/kg praziquantel)): 3574.2 ng/mL
- AUCinf [1, 10]: 5393 mg∗h/l
- T1/2 [1, 10]: 563.2 h
- AUClast/D (Geo CV%) [1, 11]: 108.66 (142.5) h∗kg∗μg/l/μg
- Cmax/D (Geo CV%) [1, 11]: 0.084 (137.8) kg∗μg/l/μg
- AUClast/D (Geo CV%) [1, 12]: 78.5 (30.7) h∗kg∗μg/l/μg
- Cmax/D (Geo CV%) [1, 12]: 0.053 (34.0) kg∗μg/l/μg
- dose proportionality of plasma PK (rate and extent) [1, 13]: less than proportional increase
- T1/2 (plasma half-life) [2, 14]: 515.4 (54.2) h
- AUCinf [2, 15]: 300.1 (29.1) mg∗h/l
- AUClast [2, 15]: 298 (29.5) mg∗h/l
- Cl_pred (systemic clearance) [2, 15]: 0.005 (31.7) l/h/kg
- Vz_pred (volume of distribution) [2, 15]: 4.00 (56.5) l/kg
- absolute bioavailability after topical application ([3]; cats, Study 1, Fabs = AUCinf/D spot-on / AUCinf/D i.v., group geometric means): 57%
- AUClast/D (Geo CV%) ([3]; cats): 103.16 (32.9) h∗kg∗μg/l/μg
- Cmax/D (Geo CV%) ([3]; cats): 0.092 (37.9) kg∗μg/l/μg
- extent of metabolism (conclusion from excretion) ([4]; cats, Study 3, topical administration, 28 days): poorly metabolized

SMILES: CC(C)C[C@H]1C(=O)O[C@H](Cc2ccc(N3CCOCC3)cc2)C(=O)N(C)[C@@H](CC(C)C)C(=O)O[C@H](C)C(=O)N(C)[C@@H](CC(C)C)C(=O)O[C@H](Cc2ccc(N3CCOCC3)cc2)C(=O)N(C)[C@@H](CC(C)C)C(=O)O[C@H](C)C(=O)N1C [Emodepside, emodepside]
- Ratio AUClast/D [1, 7]: 0.64
- Ratio Cmax/D [1, 7]: 0.60
- Ratio AUClast/D [1, 8]: 0.66
- Ratio Cmax/D [1, 8]: 0.53
- AUC(0-inf) ([1]; European Shorthair (ESH), in vivo, topical or ocular, cats, Study 2, single topical Felpreva 2.5x, 0.37 ml/kg): 36100 ng·h/mL
- AUC(0-inf) ([1]; European Shorthair (ESH), in vivo, topical or ocular, cats, Study 2, single topical Felpreva 5x, 0.74 ml/kg): 62500 ng·h/mL
- Cmax ([1]; European Shorthair (ESH), in vivo, topical or ocular, Cmax, cats, Study 2, single topical Felpreva 5x, 0.74 ml/kg (72.5 mg/kg tigolaner, 15 mg/kg emodepside, 60 mg/kg praziquantel)): 106 ng/mL
- half-life ([1]; European Shorthair (ESH), in vivo, topical or ocular, Study 2, single topical Felpreva 2.5x, 0.37 ml/kg): 329 h
- half-life ([1]; European Shorthair (ESH), in vivo, topical or ocular, Study 2, single topical Felpreva 5x, 0.74 ml/kg): 328 h
- Tmax ([1]; European Shorthair (ESH), in vivo, topical or ocular, Tmax, cats, Study 2, single topical Felpreva 2.5x, 0.37 ml/kg): 47.8 h
- Tmax ([1]; European Shorthair (ESH), in vivo, topical or ocular, Tmax, cats, Study 2, single topical Felpreva 5x, 0.74 ml/kg): 61.9 h
- AUClast/D (Geo CV%) [1, 11]: 4.32 (44.2) h∗kg∗μg/l/μg
- Cmax/D (Geo CV%) [1, 11]: 0.009 (71.4) kg∗μg/l/μg
- AUClast/D (Geo CV%) [1, 12]: 4.5 (36.5) h∗kg∗μg/l/μg
- Cmax/D (Geo CV%) [1, 12]: 0.008 (35.7) kg∗μg/l/μg
- dose proportionality of plasma PK (rate and extent) [1, 13]: less than proportional increase
- AUC(0-inf) [2, 16]: 1600 ng·h/mL
- AUC(0-t) [2, 16]: 1500 ng·h/mL
- half-life [2, 16]: 202 h
- Vd ([2]; in vivo, iv, 0.2 mg/kg): 38.2 L/kg
- clearance ([2]; in vivo, iv, 0.2 mg/kg): 2.18 mL/min/kg
- AUClast/D (Geo CV%) ([3]; cats): 6.79 (38.7) h∗kg∗μg/l/μg
- Cmax/D (Geo CV%) ([3]; cats): 0.015 (61.0) kg∗μg/l/μg
- Tmax (in vivo; Domestic Shorthair (DSH)): 36 h
- AUC(0-inf) (in vivo; Domestic Shorthair): 20600 ng·h/mL
- AUC(0-t) (in vivo; Domestic Shorthair): 20500 ng·h/mL
- Cmax (in vivo; Domestic Shorthair): 44.3 ng/mL
- Tmax (in vivo; Domestic Shorthair): 36.9 h
- bioavailability (in vivo; Domestic Shorthair): 90%
- half-life (in vivo; Domestic Shorthair): 348 h
- route of clearance [4]: mainly cleared via the faeces

SMILES: O=C(C1CCCCC1)N1CC(=O)N2CCc3ccccc3C2C1 (stereo not shown) [Praziquantel, praziquantel]
- AUClast/D (Geo CV%) [1, 11]: 0.19 (47.7) h∗kg∗μg/l/μg
- Cmax/D (Geo CV%) [1, 11]: 0.003 (51.7) kg∗μg/l/μg
- AUClast/D (Geo CV%) [1, 12]: 0.25 (22.2) h∗kg∗μg/l/μg
- Cmax/D (Geo CV%) [1, 12]: 0.003 (39.8) kg∗μg/l/μg
- Ratio Cmax/D ([1]; in vivo): 0.75
- dose proportionality of plasma PK (rate and extent) ([1]; in vivo): less than proportional increase
- serum half-life [5]: 103 h
- T1/2 (plasma half-life) [2, 14]: 1.8 (94.8) h
- Cl_pred (systemic clearance) ([2]; in vivo): 1.861 (32.2) l/h/kg
- Vz_pred (volume of distribution) ([2]; in vivo): 4.95 (142.2) l/kg
- AUClast/D (Geo CV%) ([3]; cats): 0.30 (19.9) h∗kg∗μg/l/μg
- Cmax/D (Geo CV%) ([3]; cats): 0.004 (57.2) kg∗μg/l/μg
- AUCinf (total plasma exposure) ([3]; in vivo): 3.7 (19.6) mg∗h/l
- AUClast ([3]; in vivo): 3.6 (19.7) mg∗h/l
- Tmax ([3]; in vivo): 4.8 (107.7) h
- absolute bioavailability after topical application ([3]; in vivo): 48%
- bioavailability after topical application, first 24 h ([3]; in vivo): 6%
- plasma elimination half-life ([3]; in vivo): 240 h
- route of clearance [4]: equally cleared via the faeces and via the urine for males
- Tmax [6]: 18.7 ± 47 h
- maximum serum concentration [6]: 61.3 ± 44.1 µg/L
- serum half-life [6]: 98.4 ± 36 h
